As a reminder, the IC50 is the midpoint of a concentration-inhibition curve.

We go through 11 molecules from patent publication US10144738B2, “Pyrazolo[1,5-A]PYRAZIN-4-YL derivatives” (Pfizer Inc., priority 2016, dated 2018).

One experiment has as its target JAK3 (Homo sapiens (Human), UniProt P52333). Nature of the experiment: JAK Caliper enzyme assay at 1 mM ATP (JAK3). As to conditions: recombinant human kinase domain, Caliper mobility shift. The class given is biochemical. Here is the method: (§1) Compounds of the invention were evaluated by in vitro methods to determine their respective ability to inhibit the JAK kinases (TYK2, JAK1, JAK2, JAK3).
(§2) The human JAK inhibitory activity was determined by using a microfluidic assay to monitor phosphorylation of a synthetic peptide by the recombinant human kinase domain of each of the four members of the JAK family, JAK1, JAK2, JAK3 and TYK2. […] Each assay condition was optimized for enzyme concentration and room temperature incubation time to obtain a conversion rate of 20% to 30% phosphorylated peptide product. Reactions were terminated by the addition of stop buffer containing EDTA. Utilizing the LabChip 3000 mobility shift technology (Caliper Life Science), each assay reaction was sampled to determine the level of phosphorylation. This technology is separation-based, allowing direct detection of fluorescently labeled substrates and products. Separations are controlled by a combination of vacuum pressure and electric field strength optimized for each peptide substrate.
(§3) JAK Caliper Enzyme Assay at 1 mM ATP
(§4) Compounds were added to a 384-well plate. Reaction mixtures contained 10 mM HEPES, pH 7.4, 10 mM MgCl2, 0.01% BSA, 0.0005% Tween 20, 1 mM ATP and 1 μM peptide substrate. […] The assays were initiated by the addition of 20 nM JAK1, 1 nM JAK2, 1 nM JAK or 1 nM TYK2 enzyme and were incubated at room temperature for three hours for JAK1, 60 minutes for JAK2, 75 minutes for JAK3 or 135 minutes for TYK2. Enzyme concentrations and incubation times were optimized for each new enzyme preps and were modified slightly over time to ensure 20% to 30% phosphorylation. The assays were stopped with 15 μL of 180 mM HEPES, pH 7.4, 20 mM EDTA, and 0.2% Coating Reagent 3. The assay plates were placed on a Caliper Life Science LC3000 instrument, and each well was sampled using appropriate separation conditions to measure the unphosphorylated and phosphorylated peptide.
(§5) The data was collected using the HTS Well Analyzer software from Caliper Life Sciences. The data output for data analysis is the percent product converted calculated on peak height (Equation 1). % product converted=100*((product)/(product+substrate)) Equation 1: […]
(§6) The percent effect at each compound concentration was calculated based on the positive and negative control well contained within each assay plate (Equation 2). […] The negative control wells contained DMSO alone (at the same concentration as the compound wells) that was used to set the baseline activity in the assay (i.e., uninhibited JAK1, JAK2, JAK3 or TYK2). % effect=100*((sample well−negative control)/(positive control-negative control)) Equation 2: The percent effect was plotted against the compound concentration compound.

In the next experiment the target is JAK2 (Homo sapiens (Human), UniProt O60674). Put plainly: JAK Caliper enzyme assay at 1 mM ATP (JAK2). The class given is biochemical. The settings on record: recombinant human kinase domain, Caliper mobility shift. Here is the method:
as §1, §2, §3, §4, §5, §6

Experiment [1] deals with IL-12 induced STAT4 phosphorylation (IL-12 signals through TYK2 and JAK2). Put plainly: Human Whole Blood IL-12 Induced STAT4 Phosphorylation Assay. The class given is cell-based. As to conditions: Lymphocyte, IL-12 5 ng/mL, pSTAT4 in lymphocytes by flow cytometry, read-out: HWB IL-12 IC50. As for the experimental part: Selected compounds were assessed for their ability to inhibit IL-12 signaling in a human whole blood flow cytometry assay. IL-12 signals through TYK2 and JAK2. Human Whole Blood IL-12 Induced STAT4 Phosphorylation Assay
Test articles were prepared as 30 mM stocks in DMSO. An 11-point 2.5 dilution series was created in DMSO with a top concentration of 10 mM. Further dilution was done by adding 4 μL of the above test article solutions into 96 μL of PBS with a top concentration of 400 μM. […] Blood was warmed to 37° C. prior to use. Human whole blood was aliquoted ([…]) in 96-well, deep-well, V-bottom plates and treated with compounds at 11 different concentrations (0.2% DMSO final) at 37° C. for 60 minutes. This was followed by a challenge with IL-12 ([…]; final, 5 ng/mL) for 15 minutes. Samples were treated with warm 1× Lyse/Fix buffer ([…]) to terminate activation and further incubated at 37° C. for 20 minutes to lyse red blood cells. Plates were centrifuged at 300×g for 5 minutes, supernatant was aspirated, and cells were washed with […] of staining buffer (PBS containing 0.5% fetal bovine serum and 0.01% sodium azide). The washed cell pellets were resuspended with […] of pre-chilled 90% methanol, and incubated at 4° C. for 30 minutes. Plates were centrifuged at 300×g for 5 minutes, supernatant containing 90% methanol was aspirated, and cells were washed with […]/well of staining buffer. Cell pellets were resuspended in staining buffer containing anti-pSTAT4-AlexaFluor647 (1 to 150 dilution, […]), and incubated at room temperature in the dark overnight.
Samples were transferred to 96-well U-bottom plates and flow cytometric analysis was performed on a FACSCalibur or LSRFortessa equipped with a HTS plate loader (BD Biosciences). The lymphocyte population was gated for histogram analysis of pSTAT4. Background fluorescence was defined using unstimulated cells and a gate was placed at the foot of the peak to include ˜0.5% gated population. The histogram statistical analysis was performed using CellQuestO Pro version 5.2.1 (BD Biosciences) or FACSDiva version 6.2 (BD Biosciences) software. Relative fluorescence unit (RFU), which measures the level of phospho STAT4, was calculated by multiplying the percent positive population and its mean fluorescence. Data from 11 compound concentrations (singlicate at each concentration) was normalized as a percentage of control based on the formula: % of Control=100×(A−B)/(C−B) where A is the RFU from wells containing compound and IL-12, B is the RFU from wells without IL-12 and compound (minimum fluorescence) and C is the RFU from wells containing only IL-12 (maximum fluorescence). Inhibition curves and IC50 values were determined using the Prism version 5 software (GraphPad, La Jolla, Calif.).

In a further experiment the target is TYK2 (Homo sapiens (Human), UniProt P29597). Put plainly: JAK Caliper enzyme assay at 1 mM ATP (TYK2). The format is biochemical. As to conditions: recombinant human kinase domain, Caliper mobility shift. Here is the method:
as §1, §2, §3, §4, §5, §6

For a further experiment, the target named is JAK1 (Homo sapiens (Human), UniProt P23458). Nature of the experiment: JAK Caliper enzyme assay at 1 mM ATP (JAK1). The format is biochemical. The settings on record: recombinant human kinase domain, Caliper mobility shift. Here is the method: Compounds of the invention were evaluated by in vitro methods to determine their respective ability to inhibit the JAK kinases (TYK2, JAK1, JAK2, JAK3). The human JAK inhibitory activity was determined by using a microfluidic assay to monitor phosphorylation of a synthetic peptide by the recombinant human kinase domain of each of the four members of the JAK family, JAK1, JAK2, JAK3 and TYK2. […] Reactions were terminated by the addition of stop buffer containing EDTA. Utilizing the LabChip 3000 mobility shift technology (Caliper Life Science), each assay reaction was sampled to determine the level of phosphorylation. This technology is separation-based, allowing direct detection of fluorescently labeled substrates and products. Separations are controlled by a combination of vacuum pressure and electric field strength optimized for each peptide substrate. […] Compounds were added to a 384-well plate. […] Enzyme concentrations and incubation times were optimized for each new enzyme preps and were modified slightly over time to ensure 20% to 30% phosphorylation. […] The assay plates were placed on a Caliper Life Science LC3000 instrument, and each well was sampled using appropriate separation conditions to measure the unphosphorylated and phosphorylated peptide. The data was collected using the HTS Well Analyzer software from Caliper Life Sciences. […] The percent effect at each compound concentration was calculated based on the positive and negative control well contained within each assay plate (Equation 2). […] The percent effect was plotted against the compound concentration compound. […] Where max is the maximum asymptote (complete inhibition), min is the minimum asymptote (no inhibition) and s is the slope factor.

Each structure is given as a SMILES string.

Sequence of JAK1 (P23458 875-1153): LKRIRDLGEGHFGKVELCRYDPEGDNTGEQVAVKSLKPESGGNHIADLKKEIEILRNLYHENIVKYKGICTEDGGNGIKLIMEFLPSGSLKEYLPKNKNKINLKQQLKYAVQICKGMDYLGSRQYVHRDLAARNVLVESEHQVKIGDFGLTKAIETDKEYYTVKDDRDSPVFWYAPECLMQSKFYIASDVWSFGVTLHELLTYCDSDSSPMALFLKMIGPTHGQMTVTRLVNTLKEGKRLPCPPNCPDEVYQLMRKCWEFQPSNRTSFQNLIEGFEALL
Sequence of TYK2 (P29597 897-1176): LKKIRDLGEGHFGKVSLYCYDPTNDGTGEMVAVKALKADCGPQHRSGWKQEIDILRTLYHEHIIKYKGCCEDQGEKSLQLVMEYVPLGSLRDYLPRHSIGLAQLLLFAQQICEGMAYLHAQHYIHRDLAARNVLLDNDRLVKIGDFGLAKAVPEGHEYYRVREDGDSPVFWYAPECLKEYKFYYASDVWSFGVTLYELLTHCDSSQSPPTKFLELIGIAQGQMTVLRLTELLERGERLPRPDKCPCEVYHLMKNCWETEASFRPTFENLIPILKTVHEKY
Sequence of JAK3 (P52333 822-1111): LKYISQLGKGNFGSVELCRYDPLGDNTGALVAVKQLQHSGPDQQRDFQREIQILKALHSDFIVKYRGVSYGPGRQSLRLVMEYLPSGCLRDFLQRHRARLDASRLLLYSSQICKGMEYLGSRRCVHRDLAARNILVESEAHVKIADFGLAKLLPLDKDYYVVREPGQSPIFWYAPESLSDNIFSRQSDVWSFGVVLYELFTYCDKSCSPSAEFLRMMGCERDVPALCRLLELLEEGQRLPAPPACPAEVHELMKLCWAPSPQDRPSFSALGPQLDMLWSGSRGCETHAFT
Sequence of JAK2 (O60674 849-1124): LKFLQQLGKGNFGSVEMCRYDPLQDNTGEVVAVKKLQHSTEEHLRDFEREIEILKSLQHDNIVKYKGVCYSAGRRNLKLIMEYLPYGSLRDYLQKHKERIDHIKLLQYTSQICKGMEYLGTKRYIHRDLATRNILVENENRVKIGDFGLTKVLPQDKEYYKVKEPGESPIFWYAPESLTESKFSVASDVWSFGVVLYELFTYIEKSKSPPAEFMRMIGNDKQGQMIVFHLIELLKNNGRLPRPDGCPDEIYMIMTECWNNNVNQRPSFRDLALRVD

On to `N#CC[C@]1(n2cc(-c3nc(-c4cc(CO)on4)cn4nccc34)cn2)C[C@@H](C#N)C1` [Example 1, (1s,3s)-3-(Cyanomethyl)-3-(4-(6-(5-(hydroxymethyl)isoxazol-3-yl)pyrazolo[1,5-a]pyrazin-4-yl)-1H-pyrazol-1-yl)cyclobutane-1-carbonitrile], for which the half-maximal inhibitory concentration (IC50) is over 9790 nM on JAK3, 40 nM at JAK2 and 162 nM in experiment [1].

For `Cn1cc(-c2cn3nccc3c(-c3cnn(C4(CC#N)CN(CC#N)C4)c3)n2)cn1` [Example 7, 2,2′-(3-(4-(6-(1-Methyl-1H-pyrazol-4-yl)pyrazolo[1,5-a]pyrazin-4-yl)-1H-pyrazol-1-yl)azetidine-1,3-diyl)diacetonitrile], the IC50 turned out to be 6680 nM at JAK3; 37 nM at JAK2; 7 nM at TYK2; 41 nM in experiment [1]; 250 nM at JAK1.

On to `Cn1cc(-c2cn3nccc3c(-c3cnn([C@]4(CC#N)C[C@H](C#N)C4)c3)n2)cn1` [Example 19, (1s,3s)-3-(Cyanomethyl)-3-(4-(6-(1-methyl-1H-pyrazol-4-yl)pyrazolo[1,5-a]pyrazin-4-yl)-1H-pyrazol-1-yl)cyclobutane-1-carbonitrile], for which the half-maximal inhibitory concentration (IC50) in experiment [1] amounted to 28 nM.

In the case of `Cn1cc(-c2cn3nccc3c(-c3cnn([C@]4(CC#N)C[C@@H](C#N)C4)c3)n2)cn1` [Example 20, (1r,3r)-3-(Cyanomethyl)-3-(4-(6-(1-methyl-1H-pyrazol-4-yl)pyrazolo[1,5-a]pyrazin-4-yl)-1H-pyrazol-1-yl)cyclobutane-1-carbonitrile], the IC50 in experiment [1] was 50 nM.

In the case of `Cn1cc(-c2cn3nccc3c(-c3cnn([C@]4(CC#N)C[C@@H](C#N)C4)c3)n2)c(N)n1` [Example 23, (1r,3r)-3-(4-(6-(3-Amino-1-methyl-1H-pyrazol-4-yl)pyrazolo[1,5-a]pyrazin-4-yl)-1H-pyrazol-1-yl)-3-(cyanomethyl)cyclobutane-1-carbonitrile], the IC50 is 9410 nM at JAK3; 26 nM at JAK2; 9 nM at TYK2; 34 nM in experiment [1]; 431 nM at JAK1.

As for `Cc1cnn2cc(-c3cnn(C)c3)nc(-c3cnn([C@]4(CC#N)C[C@@H](C#N)C4)c3)c12` [Example 25, (1r,3r)-3-(Cyanomethyl)-3-(4-(3-methyl-6-(1-methyl-1H-pyrazol-4-yl)pyrazolo[1,5-a]pyrazin-4-yl)-1H-pyrazol-1-yl)cyclobutane-1-carbonitrile], the half-inhibitory concentration (IC50) was over 10000 nM on JAK3; 99 nM on JAK2; 23 nM at TYK2; 59 nM in experiment [1]; 319 nM at JAK1.

In the case of `CO[C@H]1C[C@@](CC#N)(n2cc(-c3nc(-c4cc(CO)[nH]n4)cn4nccc34)cn2)C1` [Example 27, 2-((1 s,3r)-1-(4-(6-(5-(Hydroxymethyl)-1H-pyrazol-3-yl)pyrazolo[1,5-a]pyrazin-4-yl)-1H-pyrazol-1-yl)-3-methoxycyclobutyl)acetonitrile], the IC50 at JAK3 was over 10000 nM; at JAK2 it was 171 nM; on TYK2 it was 24 nM; in experiment [1], 86 nM; on JAK1 it was 737 nM.

Turning to `CO[C@H]1C[C@](CC#N)(n2cc(-c3nc(-c4cc(N)[nH]n4)cn4nccc34)cn2)C1` [Example 30, 2-((1r,3s)-1-(4-(6-(3-Amino-1H-pyrazol-5-yl)pyrazolo[1,5-a]pyrazin-4-yl)-1H-pyrazol-1-yl)-3-methoxycyclobutyl)acetonitrile], the IC50 at JAK3 is over 10000 nM; at JAK2, 71 nM; on TYK2, 7 nM; in experiment [1], 46 nM; on JAK1 it was 174 nM.

In the case of `Cn1cc(-c2cn3nccc3c(-c3cnn([C@]4(CC#N)C[C@@](C)(C#N)C4)c3)n2)cn1` [Example 35, (1r,3r)-3-(Cyanomethyl)-1-methyl-3-(4-(6-(1-methyl-1H-pyrazol-4-yl)pyrazolo[1,5-a]pyrazin-4-yl)-1H-pyrazol-1-yl)cyclobutane-1-carbonitrile], the IC50 is over 10000 nM on JAK3, 268 nM at JAK2, 136 nM at TYK2 and 1920 nM on JAK1.

Regarding `Cc1cc2c(-c3cnn([C@]4(CC#N)C[C@@H](C#N)C4)c3)nc(-c3cnn(C)c3)cn2n1` [Example 36, (1r,3r)-3-(Cyanomethyl)-3-(4-(2-methyl-6-(1-methyl-1H-pyrazol-4-yl)pyrazolo[1,5-a]pyrazin-4-yl)-1H-pyrazol-1-yl)cyclobutane-1-carbonitrile], the IC50 is over 10000 nM at JAK3, 755 nM at JAK2, 1600 nM at TYK2 and 3520 nM at JAK1.

Turning to `Cn1cc(-c2cn3nccc3c(-c3cnn([C@]4(CC#N)C[C@@H](C#N)C4)c3)n2)c(=O)[nH]1` [Example 37, (1r,3r)-3-(Cyanomethyl)-3-(4-(6-(1-methyl-3-oxo-2,3-dihydro-1H-pyrazol-4-yl)pyrazolo[1,5-a]pyrazin-4-yl)-1H-pyrazol-1-yl)cyclobutane-1-carbonitrile], the half-maximal inhibitory concentration (IC50) on JAK3 is over 10000 nM; on JAK2, 166 nM; on TYK2, 32 nM; on JAK1, 3490 nM.
